Test: Human microsomal stability assay
Type: in vitro ADME
Settings: human liver microsomes 0.5 mg/mL, 37° C., pH 7.4, NADPH regenerating system, 0-30 minutes
Description: Human Microsomal Stability Assay
Human liver microsomes (Cat. NO.: 452117, Corning, USA) were preincubated with test compound for 10 minutes at 37° C. in 100 mM potassium phosphate buffer, pH 7.4. The reactions were initiated by adding NADPH regenerating system. The final incubation mixtures contained […] test compound, 0.5 mg/mL liver microsomal protein, 1 mM MgCl2, 1 mM NADP, 1 unit/mL isocitric dehydrogenase and 6 mM isocitric acid in 100 mM potassium phosphate buffer, pH 7.4. After incubation times of 0, 3, 6, 9, 15 and 30 minutes at 37° C., 300 μL of cold ACN (including internal standard) was added to 100 μL incubation mixture to terminate the reaction. Following precipitation and centrifugation, 100 μL supernatant will be taken out and added 300 uL water. The amount of compound remaining in the samples was determined by LC-MS/MS. Controls of no NADPH regenerating system at zero and 30 minutes were also prepared and analyzed. The results were categorized as: low (<7.0 mLJmin/kg), medium (7.0-16.2 mL/min/kg) and high (16.2-23.2 mLJmin/kg).

Row | SMILES | CL (h)
1 | C[C@@H]1CN(c2ccc(C#N)c3ncsc23)C[C@@H]2c3ccc(N4CCNCC4)cc3CN12 [Example 6, 7-[(4R,10bS)-4-methyl-8-piperazin-1-yl-3,4,6,10b-tetrahydro-1H-pyrazino[2,1-a]isoindol-2-yl]-1,3-benzothiazole-4-carbonitrile] | 0.396 L/h/kg
2 | C[C@@H]1CN(c2ccc(C#N)c3ncccc23)C[C@@H]2c3ccc(N4CC5(CCN5)C4)cc3CN12 [Example 37, 5-[(4R,10bS)-8-(1,6-diazaspiro[3.3]heptan-6-yl)-4-methyl-3,4,6,10b-tetrahydro-1H-pyrazino[2,1-a]isoindol-2-yl]quinoline-8-carbonitrile] | 0.39 L/h/kg
3 | C[C@@H]1CN(c2ccc(C#N)c3ncccc23)C[C@@H]2c3ccc(N4CCNC[C@H](O)C4)cc3CN12 [Example 53A, 5-[(4R,10bS)-8-[(6S)-6-hydroxy-1,4-diazepan-1-yl]-4-methyl-3,4,6,10b-tetrahydro-1H-pyrazino[2,1-a]isoindol-2-yl]quinoline-8-carbonitrile] | 0.516 L/h/kg
4 | C[C@@H]1CN(c2ccc(C#N)c3ncccc23)C[C@@H]2c3ccc(N4C[C@H](N)[C@@](C)(O)C4)cc3CN12 [Example 45B, 5-[(4R,10bS)-8-[(3S,4S)-4-amino-3-hydroxy-3-methyl-pyrrolidin-1-yl]-4-methyl-3,4,6,10b-tetrahydro-1H-pyrazino[2,1-a]isoindol-2-yl]quinoline-8-carbonitrile] | 0.372 L/h/kg
5 | C[C@@H]1CN(c2ccc(C#N)c3ncccc23)C[C@@H]2c3ccc(N4C[C@@H](N)[C@](C)(O)C4)cc3CN12 [Example 45A, 5-[(4R,10bS)-8-[(3R,4R)-4-amino-3-hydroxy-3-methyl-pyrrolidin-1-yl]-4-methyl-3,4,6,10b-tetrahydro-1H-pyrazino[2,1-a]isoindol-2-yl]quinoline-8-carbonitrile] | 0.372 L/h/kg
6 | C[C@@H]1CN(c2ccc(C#N)c3ncccc23)C[C@@H]2c3ccc(N4CC[C@@H](N)C4)cc3CN12 [Example 20, 5-[(4R,10bS)-8-[(3R)-3-aminopyrrolidin-1-yl]-4-methyl-3,4,6,10b-tetrahydro-1H-pyrazino[2,1-a]isoindol-2-yl]quinoline-8-carbonitrile] | 0.39 L/h/kg
7 | C[C@@H]1CN(c2ccc(C#N)c3ncccc23)C[C@@H]2c3ccc(NC4CNC4)cc3CN12 [Example 28, 5-[(4R,10S)-8-(azetidin-3-ylamino)-4-methyl-3,4,6,10b-tetrahydro-1H-pyrazino[2,1-a]isoindol-2-yl]quinoline-8-carbonitrile] | 0.522 L/h/kg
8 | CO[C@H]1CN(c2ccc3c(c2)CN2C3CN(c3ccc(C#N)c4ncccc34)C[C@H]2C)C[C@@H]1N (single isomer, unassigned) [Example 16A] | 0.51 L/h/kg
9 | C[C@@H]1CN(c2ccc(C#N)c3ncccc23)C[C@@H]2c3ccc(N4C[C@@H](F)[C@@H](N)C4)cc3CN12 [Example 46, 5-[(4R,10bS)-8-[(3S,4R)-3-amino-4-fluoro-pyrrolidin-1-yl]-4-methyl-3,4,6,10b-tetrahydro-1H-pyrazino[2,1-a]isoindol-2-yl]quinoline-8-carbonitrile] | 0.528 L/h/kg
10 | C[C@@H]1CN(c2ccc(C#N)c3ncccc23)C[C@@H]2c3ccc(N4C[C@H](N)[C@@H](O)C4)cc3CN12 [Example 40A, 5-[(4R,10bS)-8-[(3S,4S)-3-amino-4-hydroxy-pyrrolidin-1-yl]-4-methyl-3,4,6,10b-tetrahydro-1H-pyrazino[2,1-a]isoindol-2-yl]quinoline-8-carbonitrile] | 0.42 L/h/kg
11 | C[C@@H]1CN(c2ccc(C#N)c3ncccc23)C[C@@H]2c3ccc(N4CCC(N)(CO)C4)cc3CN12 (stereo partly drawn) [Example 19, 5-[(4R,10bS)-8-[3-amino-3-(hydroxymethyl)pyrrolidin-1-yl]-4-methyl-3,4,6,10b-tetrahydro-1H-pyrazino[2,1-a]isoindol-2-yl]quinoline-8-carbonitrile] | 0.462 L/h/kg
12 | CO[C@@H]1CN(c2ccc3c(c2)CN2C3CN(c3ccc(C#N)c4ncccc34)C[C@H]2C)C[C@@H]1N (relative stereo) [Example 17, 5-[(4R,10bS)-8-[cis-3-amino-4-methoxy-pyrrolidin-1-yl]-4-methyl-3,4,6,10b-tetrahydro-1H-pyrazino[2,1-a]isoindol-2-yl]quinoline-8-carbonitrile] | 0.372 L/h/kg
13 | N#Cc1ccc(N2CCN3Cc4cc(N5CCNCC5)ccc4C3C2)c2scnc12 (stereo not shown) [Example 4, 7-(8-piperazin-1-yl-3,4,6,10b-tetrahydro-1H-pyrazino[2,1-a]isoindol-2-yl)-1,3-benzothiazole-4-carbonitrile] | 0.372 L/h/kg
14 | C[C@@H]1CN(c2ccc(C#N)c3ncccc23)C[C@@H]2c3ccc(OCCN(C)C)cc3CN12 [Example 25, 5-[(4R,10bS)-8-[2-(dimethylamino)ethoxy]-4-methyl-3,4,6,10b-tetrahydro-1H-pyrazino[2,1-a]isoindol-2-yl]quinoline-8-carbonitrile] | 0.48 L/h/kg
15 | [2H]c1ccc2c(N3C[C@@H](C)N4Cc5cc(N6CC(C)(N)C6)ccc5[C@H]4C3)ccc(C#N)c2n1 [Example 92, 5-[(4R,10bS)-8-(3-amino-3-methyl-azetidin-1-yl)-4-methyl-3,4,6,10b-tetrahydro-1H-pyrazino[2,1-a]isoindol-2-yl]-2-deuterio-quinoline-8-carbonitrile] | 0.384 L/h/kg
16 | C[C@@H]1CN(c2ccc(C#N)c3ncccc23)CC2c3ccc(N4C[C@H](N)[C@@H](O)C4)cc3CN21 (relative stereo) [Example 21, 5-[(4R,10bS)-8-[trans-3-amino-4-hydroxy-pyrrolidin-1-yl]-4-methyl-3,4,6,10b-tetrahydro-1H-pyrazino[2,1-a]isoindol-2-yl]quinoline-8-carbonitrile] | 0.372 L/h/kg
17 | C[C@@H]1CN(c2ccc(C#N)c3ncccc23)C[C@@H]2c3ccc(N4C[C@@H](N)[C@H](F)C4)cc3CN12 [Example 48, 5-[(4R,10bS)-8-[(3R,4R)-3-amino-4-fluoro-pyrrolidin-1-yl]-4-methyl-3,4,6,10b-tetrahydro-1H-pyrazino[2,1-a]isoindol-2-yl]quinoline-8-carbonitrile] | 0.534 L/h/kg
18 | C[C@@H]1CN(c2ccc(C#N)c3ncccc23)C[C@@H]2c3ccc(NCCN(C)C)cc3CN12 [Example 26, 5-[(4R,10bS)-8-[2-(dimethylamino)ethylamino]-4-methyl-3,4,6,10b-tetrahydro-1H-pyrazino[2,1-a]isoindol-2-yl]quinoline-8-carbonitrile] | 0.372 L/h/kg
19 | C[C@@H]1CN(c2ccc(C#N)c3ncccc23)C[C@@H]2c3ccc(N4C[C@@H](N)[C@H](O)C4)cc3CN12 (single isomer, unassigned) [Example 40B] | 0.456 L/h/kg
20 | CO[C@@H]1CN(c2ccc3c(c2)CN2[C@H](C)CN(c4ccc(C#N)n5nccc45)C[C@H]32)CC[C@H]1N [Example 104, 4-[(4R,10bS)-8-[(3R,4R)-4-amino-3-methoxy-1-piperidyl]-4-methyl-3,4,6,10b-tetrahydro-1H-pyrazino[2,1-a]isoindol-2-yl]pyrazolo[1,5-a]pyridine-7-carbonitrile] | 0.42 L/h/kg
21 | C[C@@H]1CN(c2ccc(C#N)c3ncccc23)C[C@@H]2c3ccc(N[C@@H]4CNC[C@@H]4F)cc3CN12 [Example 32, 5-[(4R,10bS)-8-[[(3R,4S)-4-fluoropyrrolidin-3-yl]amino]-4-methyl-3,4,6,10b-tetrahydro-1H-pyrazino[2,1-a]isoindol-2-yl]quinoline-8-carbonitrile] | 0.522 L/h/kg
22 | C[C@@H]1CN(c2ccc(C#N)c3ncccc23)C[C@@H]2c3ccc(N4CCOC[C@H](N)C4)cc3CN12 [Example 54A, 5-[(4R,10bS)-8-[(6R)-6-amino-1,4-oxazepan-4-yl]-4-methyl-3,4,6,10b-tetrahydro-1H-pyrazino[2,1-a]isoindol-2-yl]quinoline-8-carbonitrile] | 0.45 L/h/kg
23 | C[C@@H]1CN(c2ccc(C#N)n3ncc(F)c23)C[C@@H]2c3ccc(N4C[C@H](N)[C@@](C)(O)C4)cc3CN12 [Example 112, 4-[(4R,10bS)-8-[(3S,4S)-4-amino-3-hydroxy-3-methyl-pyrrolidin-1-yl]-4-methyl-3,4,6,10b-tetrahydro-1H-pyrazino[2,1-a]isoindol-2-yl]-3-fluoro-pyrazolo[1,5-a]pyridine-7-carbonitrile] | 0.516 L/h/kg
24 | COC1CN(c2ccc3c(c2)CN2C3CN(c3ccc(C#N)c4ncccc34)C[C@H]2C)CC1N (single isomer, unassigned) [Example 16B] | 0.486 L/h/kg
25 | C[C@@H]1CN(c2ccc(C#N)c3nccnc23)C[C@@H]2c3ccc(N4CCNCC4)cc3CN12 [Example 7, 8-[(4R,10bS)-4-methyl-8-piperazin-1-yl-3,4,6,10b-tetrahydro-1H-pyrazino[2,1-a]isoindol-2-yl]quinoxaline-5-carbonitrile] | 0.468 L/h/kg

— patent US12157746B2, “Tetrahydro-1H-pyrazino[2,1-a]isoindolylquinoline compounds for the treatment of autoimmune disease” (F. HOFFMANN-LA ROCHE AG, priority 2018, dated 2024)
